# Measurements published in publication PMC4138103 (PLoS ONE, 2014).
# Like-named read-outs stand apart in the source and are kept apart here.
# Test system: Sprague-Dawley rats
# Assay: Serum steroids and gonadotropins
# Assay type: in vivo, Rattus norvegicus
# Details: for CED, Serum FSH / CED, Serum LH / CED-L, Serum FSH / CED-L, Serum LH: adipose tissue concentration based; for Emax: Rattus norvegicus; for Estradiol / LH / Progesterone / FSH / Testosterone: group mean; for Serum FSH, CED / Serum FSH, CED-L / Serum LH, CED / Serum LH, CED-L: total dose based
# Description: Serum testosterone, estradiol and progesterone concentrations were measured by time-resolved immunofluorometric assay, DELFIA (PerkinElmer Life and Analytical Sciences, Turku, Finland) after diethyl ether (Merck KGaA, Darmstadt, Germany) extraction. Ether-extracted serum samples were reconstituted to DELFIA Diluent II buffer (PerkinElmer Life and Analytical Sciences, Turku, Finland) and used for analysis. The sensitivity of the assay was 100 pg/ml for testosterone, 13.6 pg/ml for estradiol and 250 pg/ml for progesterone. The intra- and interassay coefficients of variation (CV) were below 6 and 12%, respectively. To enhance the sensitivity, commercial tracer and antiserum were additionally diluted 5∶8 with assay buffer (PerkinElmer Life and Analytical Sciences, Turku, Finland) in testosterone assay. For estradiol and progesterone, dilution rate was 1∶2. Serum follicle stimulating hormone (FSH) and luteinizing hormone (LH) levels were determined from unextracted samples by DELFIA as described previously, [31].
# Data were also analyzed using the BMD method, which is based on dose-response modeling of the full data set using a nested family of exponential and Hill models. The analyses were done on data of males and females combined, using sex as a covariate. […] In that case, different Critical Effect Doses (CEDs) and CEDs at the lowest bound of the confidence interval (CED-L) were generated for each sex. If no difference between sexes is detected, a CED and CED-Ls for the combined data is generated. However, this was also done if the curve fits are close, and separate analyses for males and females were then performed manually. CEDs and CED-Ls were calculated at the predefined Critical Effect Size (CES) of 5% (EFSA standard) or 10%.
# [1] = females, total dose 10 mg/kg bw
# [2] = females, total dose 30 mg/kg bw
# [3] = females, total dose 100 mg/kg bw
# [4] = females, total dose 300 mg/kg bw
# [5] = females, total dose 1000 mg/kg bw
# [6] = females, total dose 1700 mg/kg bw
# [7] = males, total dose 1000 mg/kg bw
# [8] = males, total dose 1700 mg/kg bw
structure (smiles),measurement,setting,value
"Clc1cc(Cl)c(-c2cc(Cl)c(Cl)c(Cl)c2Cl)cc1Cl [PCB 180, 2,2′,3′,4,4′,5,5′-heptachlorobiphenyl]","CED, Serum FSH","M, CES 5%, model E2",1600 µg/g lipid
same,"CED, Serum LH","M, CES 5%, model E2",1160 µg/g lipid
same,"CED-L, Serum FSH","M, CES 5%, model E2",1116 µg/g lipid
same,"CED-L, Serum LH","M, CES 5%, model E2",648 µg/g lipid
same,"CED, Serum FSH","M, CES 10%, model E2",3290 µg/g lipid
same,"CED, Serum LH","M, CES 10%, model E2",2390 µg/g lipid
same,"CED-L, Serum FSH","M, CES 10%, model E2",2292 µg/g lipid
same,"CED-L, Serum LH","M, CES 10%, model E2",1331 µg/g lipid
same,Emax,"males, controls vs high dose, fitted model, read-out: Serum FSH, Maximum response",-20.6%
same,Emax,"males, controls vs high dose, fitted model, read-out: Serum LH, Maximum response",-27.9%
same,Emax,"M, model E2, controls vs high dose according to the fitted model, read-out: Maximum response, Serum FSH",-21.1%
same,Emax,"M, model E2, controls vs high dose according to the fitted model, read-out: Maximum response, Serum LH",-27.8%
same,Estradiol,"females, total dose 3 mg/kg bw",20.2 pg/mL
same,LH,"females, total dose 3 mg/kg bw",1.51 ng/mL
same,Progesterone,"females, total dose 3 mg/kg bw",37.1 ng/mL
same,Estradiol,[1],23.6 pg/mL
same,LH,[1],2.57 ng/mL
same,Progesterone,[1],18.0 ng/mL
same,Estradiol,[2],18.8 pg/mL
same,LH,[2],1.81 ng/mL
same,Progesterone,[2],22.3 ng/mL
same,Estradiol,[3],21.4 pg/mL
same,LH,[3],1.96 ng/mL
same,Progesterone,[3],33.0 ng/mL
same,Estradiol,[4],15.4 pg/mL
same,LH,[4],2.02 ng/mL
same,Progesterone,[4],27.5 ng/mL
same,Estradiol,[5],17.4 pg/mL
same,LH,[5],1.39 ng/mL
same,Progesterone,[5],27.7 ng/mL
same,Estradiol,[6],17.6 pg/mL
same,LH,[6],1.77 ng/mL
same,Progesterone,[6],22.7 ng/mL
same,"FSH, Dose response",males,"D, T"
same,"LH, Dose response",males,"D, T"
same,"Serum FSH, CED","males, CES 5%",377 mg/kg bw
same,"Serum FSH, CED-L","males, CES 5%",263 mg/kg bw
same,"Serum LH, CED","males, CES 5%",266 mg/kg bw
same,"Serum LH, CED-L","males, CES 5%",150 mg/kg bw
same,"Serum FSH, CED","males, CES 10%",775 mg/kg bw
same,"Serum FSH, CED-L","males, CES 10%",540 mg/kg bw
same,"Serum LH, CED","males, CES 10%",547 mg/kg bw
same,"Serum LH, CED-L","males, CES 10%",309 mg/kg bw
same,FSH,"males, total dose 3 mg/kg bw",8.23 ng/mL
same,LH,"males, total dose 3 mg/kg bw",1.23 ng/mL
same,Testosterone,"males, total dose 3 mg/kg bw",2.35 ng/mL
same,FSH,"males, total dose 10 mg/kg bw",8.54 ng/mL
same,LH,"males, total dose 10 mg/kg bw",0.91 ng/mL
same,Testosterone,"males, total dose 10 mg/kg bw",2.66 ng/mL
same,FSH,"males, total dose 30 mg/kg bw",7.44 ng/mL
same,LH,"males, total dose 30 mg/kg bw",0.99 ng/mL
same,Testosterone,"males, total dose 30 mg/kg bw",1.92 ng/mL
same,FSH,"males, total dose 100 mg/kg bw",7.88 ng/mL
same,LH,"males, total dose 100 mg/kg bw",0.84 ng/mL
same,Testosterone,"males, total dose 100 mg/kg bw",3.21 ng/mL
same,FSH,"males, total dose 300 mg/kg bw",7.66 ng/mL
same,LH,"males, total dose 300 mg/kg bw",1.03 ng/mL
same,Testosterone,"males, total dose 300 mg/kg bw",2.04 ng/mL
same,FSH,[7],7.49 ng/mL
same,LH,[7],0.77 ng/mL
same,Testosterone,[7],2.18 ng/mL
same,FSH,[8],6.49 ng/mL
same,LH,[8],0.75 ng/mL
same,Testosterone,[8],1.85 ng/mL
